Legend:
[1] = Partition coefficient (logP); settings: octanol/water
[2] = test system: Salmonella typhimurium; experiment: Mutagenic activity in Salmonella Typhimurium TA98 using Ames test; Activity is log of revertants / nmol; a= inactive; type: functional, Salmonella enterica subsp. enterica serovar Typhimurium
[3] = test system: Salmonella typhimurium; experiment: Mutagenic activity in an Ames test on Salmonella Typhimurium TA98; Activity is log of revertants/nmol; type: functional, Salmonella enterica subsp. enterica serovar Typhimurium; parameters: scale not given here

SMILES	logP [1]	Activity [2]	Activity [3]
O=[N+]([O-])c1c2ccccc2cc2ccccc12	4.78	-0.95	–
O=[N+]([O-])c1cc([N+](=O)[O-])c2ccccc2c1	2.83	–	-0.05
O=[N+]([O-])c1cccc2ccccc12	3.19	–	-0.61
NC(=O)N/N=C/c1ccc([N+](=O)[O-])o1 [NITROFURAZONE]	0.23	–	1.02
O=[N+]([O-])c1nc2ccccc2[nH]1	1.59	–	0
O=[N+]([O-])c1ccc2c(c1)Cc1cc(I)ccc1-2	5.09	–	2.97

Reference: ChEMBL document CHEMBL1125820, “Structure-activity relationship of mutagenic aromatic and heteroaromatic nitro compounds. Correlation with molecular orbital energies and hydrophobicity” (J Med Chem, 1991)
